The supplement of paper PMC13380429

Columns and labels:
Conditions in all cases: 72 h
[1] = tested on: Caco-2; test: relative viability EC50 (midpoint between 100% and the lowest measured viability); higher = less toxic
[2] = tested on: U2OS; test: as above
[3] = tested on: HepG2; test: as above
[4] = tested on: Calu-3; test: as above
[5] = tested on: Caco-2; test: drug sensitivity score (DSS) for viability; higher = more toxic; extreme values may be limits of the assay
[6] = tested on: U2OS; test: as above
[7] = tested on: Vero E6; test: as above
[8] = tested on: HepG2; test: as above
[9] = tested on: Calu-3; test: as above
[10] = tested on: Caco-2; test: cell viability relative to DMSO; higher = less toxic
[11] = tested on: U2OS; test: as above
[12] = tested on: Vero E6; test: as above
[13] = tested on: HepG2; test: as above
[14] = tested on: Calu-3; test: as above
[15] = tested on: Vero E6; test: relative viability EC50 (midpoint between 100% and the lowest measured viability); higher = less toxic

Structure (SMILES)	relative viability EC50 [1]	relative viability EC50 [2]	relative viability EC50 [3]	relative viability EC50 [4]	drug sensitivity score [5]	drug sensitivity score [6]	drug sensitivity score [7]	drug sensitivity score [8]	drug sensitivity score [9]	cell viability ([10]; 1 nM)	cell viability ([10]; 10 nM)	cell viability ([10]; 100 nM)	cell viability ([10]; 1000 nM)	cell viability ([10]; 10000 nM)	cell viability ([11]; 1 nM)	cell viability ([11]; 10 nM)	cell viability ([11]; 100 nM)	cell viability ([11]; 1000 nM)	cell viability ([11]; 10000 nM)	cell viability ([12]; 1 nM)	cell viability ([12]; 10 nM)	cell viability ([12]; 100 nM)	cell viability ([12]; 1000 nM)	cell viability ([12]; 10000 nM)	cell viability ([13]; 1 nM)	cell viability ([13]; 10 nM)	cell viability ([13]; 100 nM)	cell viability ([13]; 1000 nM)	cell viability ([13]; 10000 nM)	cell viability ([14]; 1 nM)	cell viability ([14]; 10 nM)	cell viability ([14]; 100 nM)	cell viability ([14]; 1000 nM)	cell viability ([14]; 10000 nM)	relative viability EC50 [15]
C=C1c2cccc(O)c2C(=O)C2=C(O)[C@]3(O)C(=O)C(C(N)=O)=C(O)[C@@H](N(C)C)[C@@H]3[C@@H](O)[C@H]12 [methacycline]	> 10 µM	> 10 µM	> 10 µM	> 10 µM	0	0	5.8	0	0.3	98.1%	95.7%	99.7%	93.5%	95.4%	101%	96.9%	104%	99.9%	103%	70.6%	105%	71.4%	97.6%	63.2%	104%	99.9%	97.9%	96.9%	89.9%	99.3%	89.1%	100%	83%	90.7%	–
CCOc1ccccc1N/N=C1/C(=O)N(c2nc(-c3ccccc3)cs2)N=C1C [BAM7]	> 10 µM	–	> 10 µM	> 10 µM	0	–	0	0.9	0	94.6%	105%	88.2%	103%	88.7%	–	–	–	–	–	98.8%	101%	95.2%	95.2%	94.8%	106%	96.2%	99.1%	92.2%	82.6%	96.5%	95.8%	83.7%	97.3%	99.6%	> 10 µM
C[C@H](NC(=O)[C@@H](O)c1cc(F)cc(F)c1)C(=O)N[C@@H]1C(=O)N(C)c2ccccc2-c2ccccc21	> 10 µM	> 10 µM	> 10 µM	> 10 µM	0	0	–	0	0	101%	89.2%	101%	86%	91.3%	96%	93.9%	94%	93%	94.7%	–	–	–	–	–	97.1%	95.6%	102%	101%	88.2%	98%	87.7%	97.9%	101%	100%	–
COC1=C2C[C@@H](C)C[C@H](OC)[C@H](O)[C@@H](C)/C=C(\C)[C@H](OC(N)=O)[C@@H](OC)/C=C\C=C(/C)C(=O)NC(=CC1=O)C2=O [geldanamycin]	0.716 µM	0.474 µM	0.35 µM	1.01 µM	9.2	15	1.8	17.3	7.6	106%	95.9%	95.1%	56.9%	29.2%	100%	101%	93.6%	24.2%	3%	97.1%	102%	98%	98.1%	65.9%	101%	105%	106%	1.2%	1%	99%	107%	103%	68%	35.4%	–
O=C(/C=C/c1c(C(=O)O)[nH]c2cc(Cl)cc(Cl)c12)Nc1ccccc1 [gavestinel]	> 10 µM	> 10 µM	> 10 µM	> 10 µM	0	0	–	0	0	102%	104%	91%	99.6%	104%	101%	99.2%	100%	101%	100%	–	–	–	–	–	94.5%	112%	92.9%	105%	101%	90.4%	98.8%	89.3%	99.2%	107%	–
CCC(=O)c1ccc(OCC(O)CN2CCN(c3ccccc3)CC2)cc1 (stereo unspecified) [centpropazine]	> 10 µM	> 10 µM	> 10 µM	–	0	0	–	0	–	96.8%	92.8%	94.6%	93.1%	98.4%	100%	103%	99.3%	106%	97.3%	–	–	–	–	–	120%	112%	106%	101%	90%	–	–	–	–	–	–
O=c1ccc2cc3ccoc3cc2o1 [psoralen]	> 10 µM	> 10 µM	> 10 µM	–	0	0	–	0	–	96.6%	104%	101%	104%	97.9%	101%	104%	97.8%	102%	98.9%	–	–	–	–	–	110%	107%	110%	96.5%	105%	–	–	–	–	–	–
CC(C)C[C@@H](C(=O)N[C@H](C(=O)OC1CCCC1)c1ccccc1)[C@H](O)C(=O)NO [tosedostat]	> 10 µM	–	–	–	1.1	1.5	0	4.6	8.9	90%	105%	93.6%	88.6%	84.1%	97.7%	103%	96.3%	98.3%	70.9%	99.7%	99.1%	104%	102%	106%	105%	87.8%	88.5%	80.1%	66.7%	96.2%	101%	74.6%	69.7%	59.8%	> 10 µM
